Laboratory results reported in patent US7078522B2, “Pyridopyrimidine or naphthyridine derivative” (Tanabe Seiyaku Co., Ltd., priority 2001, dated 2006).

| melting point | SMILES |
| --- | --- |
| 191 to 191.5 °C | CNC(=O)c1cc2cnc(N3CCC[C@H]3CO)nc2n(Cc2ccc(OC)c(Cl)c2)c1=O |
| 216 to 218 °C | COc1ccc(Cn2c(=O)c(C(=O)NCc3ncccn3)cc3cnc(N4CCC[C@H]4CO)nc32)cc1Cl |
| 207 to 210 °C | COc1ccc(Cn2c(=O)c(C(=O)NCCO)cc3cnc(N4CCC[C@H]4CO)nc32)cc1Cl |
| 142 to 143 °C | COc1ccc(Cn2c(=O)ccc3cnc(N4CCC[C@H]4CO)nc32)cc1Cl [Example 1, (S)-2-(2-Hydroxymethyl-1-pyrrolidinyl)-8-(3-chloro-4-methoxybenzyl)-7,8-dihydro-7-oxo-pyrido[2,3-d]pyrimidine] |
| 130 to 131 °C | COc1ccc(Cn2c(=O)ccc3cnc(OCc4ccccn4)nc32)cc1Cl [Example 2, 2-(2-Pyridylmethoxy)-8-(3-chloro-4-methoxybenzyl)-7,8-dihyro-7-oxo-pyrido[2,3-d]pyrimidine] |
| 143 to 144 °C | Cn1c(=O)ccc2cnc(N3CCC[C@H]3CO)nc21 [Example 3, (S)-2-(2-Hydroxymethyl-1-pyrrolidinyl)-8-N-mehyl-7,8-dihydro-7-oxo-pyrido[2,3-d]pyrimidine] |
| 131 to 134 °C | COc1ccc(Cn2c(=O)ccc3ccc(N4CCC[C@H]4CO)nc32)cc1Cl [Example 10, (S)-2-(2-Hydroxymethyl-1-pyrrolidinyl)-8-(3-chloro-4-methoxybenzyl)-7,8-dihydro-7-oxo-1,8-naphthyridine] |
| 183.5 to 186.5 °C | COc1ccc(Cn2c(=O)cc(-c3ccccn3)c3cnc(N4CCC[C@H]4CO)nc32)cc1Cl [Example 12, (S)-2-(2-Hydroxymethyl-1-pyrrolidinyl)-5-(2-pyridyl)-8-(3-chloro-4-methoxybenzyl)-7,8-dihydro-7-oxo-pyrido[2,3-d]pyrimidine] |
| 142 to 145 °C | COC(=O)c1c(-c2nccn2C)c2cnc(N3CCC[C@H]3CO)nc2n(Cc2ccc(OC)c(Cl)c2)c1=O [Example 13, (S)-2-(2-Hydroxymethyl-1-pyrrolidinyl)-5-(1-methyl-2-imidazolyl)-6-methoxycarbonyl-8-(3-chloro-4-methoxybenzyl)-7,8-dihydro-7-oxo-pyrido[2,3-d]pyrimidine] |
| 99 to 103 °C | O=c1ccc2cnc(N3CCC[C@H]3CO)nc2[nH]1 [Example 15] |
| 135 to 136 °C | COc1ccc(Cn2c(=O)ccc3cnc(N4CCC[C@H]4CO)nc32)cc1 [Example 16] |
| 132 °C | COc1ccc(Cn2c(=O)ccc3cnc(N4CCC[C@H]4CO)nc32)cc1OC [Example 17] |
| 154 to 155 °C | O=c1ccc2cnc(N3CCC[C@H]3CO)nc2n1Cc1ccc2c(c1)OCO2 [Example 18] |
| 150 to 151 °C | O=c1ccc2cnc(N3CCC[C@H]3CO)nc2n1Cc1ncccn1 [Example 19] |
| 143 to 144 °C | O=c1ccc2cnc(N3CCC[C@H]3CO)nc2n1Cc1ccncc1 [Example 20] |
| 102 to 104 °C | CN(C)CCn1c(=O)ccc2cnc(N3CCC[C@H]3CO)nc21 [Example 21] |
| 201 to 203 °C | COC(=O)c1cc2cnc(N3CCCCC3)nc2n(Cc2ccc(OC)c(Cl)c2)c1=O [Example 22] |
| 167 to 168 °C | COc1ccc(Cn2c(=O)ccc3cnc(N4CCc5ccccc5C4)nc32)cc1Cl [Example 23] |
| 189 to 190 °C | COc1ccc(Cn2c(=O)ccc3cnc(SC)nc32)cc1Cl [Example 24] |
| 172 to 173 °C | COc1ccc(Cn2c(=O)ccc3cnc(NCc4ncccn4)nc32)cc1Cl [Example 25] |
| 139 to 141 °C | COc1ccc(Cn2c(=O)ccc3cnc(N4CCC[C@@H]4CO)nc32)cc1Cl [Example 26] |
| 207 to 209 °C | COc1ccc(Cn2c(=O)ccc3cnc(N4CCOC(CO)C4)nc32)cc1Cl (stereo not shown) [Example 27] |
| 169.5 to 170 °C | COc1ccc(Cn2c(=O)ccc3cnc(N4CCNCC4)nc32)cc1Cl [Example 28] |
| 200 to 201 °C | COc1ccc(Cn2c(=O)ccc3cnc(N4CCc5cncnc5C4)nc32)cc1Cl [Example 29] |
| 234 to 242 °C | COc1ccc(Cn2c(=O)ccc3cnc(N)nc32)cc1Cl [Example 31] |
| 158 to 159 °C | COc1ccc(Cn2c(=O)ccc3cnc(N4CCn5ccnc5C4)nc32)cc1Cl [Example 32] |
| 258 to 264 °C | COc1ccc(Cn2c(=O)c(C(=O)O)cc3cnc(N4CCC[C@H]4CO)nc32)cc1Cl [Example 33] |
| 199 to 201 °C | COC(=O)c1cc2cnc(N3CCC[C@H]3CO)nc2n(Cc2ccccn2)c1=O [Example 42] |
